Test system: HDQ-P1
Assay: normalised response (% of control), CellTiter-Glo; higher = more viable cells (100 = DMSO, 0 = benzethonium chloride kill control)
Details: incubation time: 72 h
Outline: (§1)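 Normalised signals at single concentrations make up the values. They come from breast cancer cell lines seeded (20 µl suspension) into 384-well plates with compound at 5 concentrations in 10-fold steps over a compound-specific 10,000-fold range, incubated 72 h, and read for CellTox Green fluorescence then CellTiter-Glo luminescence. Each plate was normalised to 0.1 % DMSO (100) and a positive kill control (0).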

SMILES | normalised response [%]
CC(C)(C)Cn1c(N)nc2ccc(-c3[nH]c(C(C)(C)C)nc3-c3ccc(F)cc3)nc21 (1000 nM) | 94.6
Cn1cc(C[C@@H](N)C(=O)O)c2ccccc21 [1-methyl-D-tryptophan] (500 nM) | 107
CC[C@H](CC#N)OC(=O)N[C@@H](C)c1cccc(NC(=O)Nc2ccc(-c3cnco3)c(OC)c2)c1 [AVN944] (1000 nM) | 46.1
CCc1cnn2c(NCc3ccc[n+]([O-])c3)cc(N3CCCC[C@H]3CCO)nc12 [Dinaciclib] (100 nM) | 22.3
COc1cc(Nc2ncc(F)c(Nc3ccc4c(n3)N(COP(=O)(O)O)C(=O)C(C)(C)O4)n2)cc(OC)c1OC [Fostamatinib] (250 nM) | 103
CC(C)NC[C@@H](C(=O)N1CCN(c2ncnc3c2[C@H](C)C[C@H]3O)CC1)c1ccc(Cl)cc1 [GDC-0068] (1000 nM) | 65.5
CCCc1cc(C)[nH]c(=O)c1CNC(=O)c1cc(-c2ccnc(N3CCN(C)CC3)c2)cc2c1cnn2C(C)C [GSK343] (1000 nM) | 103
COc1cc2c(cc1-c1c(C)noc1C)ncc1[nH]c(=O)n([C@H](C)c3ccccn3)c12 [I-BET151] (1000 nM) | 82.9
CN1CCc2c(c3ccccc3n2Cc2ccc(C(=O)NO)cc2)C1 [Tubastatin A] (1000 nM) | 87.9

Test system: Hs578T
Assay: as above
Details: incubation time: 72 h
Outline: as §1

SMILES | normalised response [%]
CC(C)(C)Cn1c(N)nc2ccc(-c3[nH]c(C(C)(C)C)nc3-c3ccc(F)cc3)nc21 (1000 nM) | 97.7
Cn1cc(C[C@@H](N)C(=O)O)c2ccccc21 [1-methyl-D-tryptophan] (500 nM) | 115
CC[C@H](CC#N)OC(=O)N[C@@H](C)c1cccc(NC(=O)Nc2ccc(-c3cnco3)c(OC)c2)c1 [AVN944] (1000 nM) | 44.4
CCc1cnn2c(NCc3ccc[n+]([O-])c3)cc(N3CCCC[C@H]3CCO)nc12 [Dinaciclib] (100 nM) | 12.9
COc1cc(Nc2ncc(F)c(Nc3ccc4c(n3)N(COP(=O)(O)O)C(=O)C(C)(C)O4)n2)cc(OC)c1OC [Fostamatinib] (250 nM) | 91.3
CC(C)NC[C@@H](C(=O)N1CCN(c2ncnc3c2[C@H](C)C[C@H]3O)CC1)c1ccc(Cl)cc1 [GDC-0068] (1000 nM) | 85.4
CCCc1cc(C)[nH]c(=O)c1CNC(=O)c1cc(-c2ccnc(N3CCN(C)CC3)c2)cc2c1cnn2C(C)C [GSK343] (1000 nM) | 101
COc1cc2c(cc1-c1c(C)noc1C)ncc1[nH]c(=O)n([C@H](C)c3ccccn3)c12 [I-BET151] (1000 nM) | 52.6
CN1CCc2c(c3ccccc3n2Cc2ccc(C(=O)NO)cc2)C1 [Tubastatin A] (1000 nM) | 101

Test system: MCF-10A
Assay: as above
Details: incubation time: 72 h
Outline: as §1

SMILES | normalised response [%]
CC(C)(C)Cn1c(N)nc2ccc(-c3[nH]c(C(C)(C)C)nc3-c3ccc(F)cc3)nc21 (1000 nM) | 89.7
Cn1cc(C[C@@H](N)C(=O)O)c2ccccc21 [1-methyl-D-tryptophan] (500 nM) | 104
CC[C@H](CC#N)OC(=O)N[C@@H](C)c1cccc(NC(=O)Nc2ccc(-c3cnco3)c(OC)c2)c1 [AVN944] (1000 nM) | 58
CCc1cnn2c(NCc3ccc[n+]([O-])c3)cc(N3CCCC[C@H]3CCO)nc12 [Dinaciclib] (100 nM) | 28.7
COc1cc(Nc2ncc(F)c(Nc3ccc4c(n3)N(COP(=O)(O)O)C(=O)C(C)(C)O4)n2)cc(OC)c1OC [Fostamatinib] (250 nM) | 84
CC(C)NC[C@@H](C(=O)N1CCN(c2ncnc3c2[C@H](C)C[C@H]3O)CC1)c1ccc(Cl)cc1 [GDC-0068] (1000 nM) | 82.8
CCCc1cc(C)[nH]c(=O)c1CNC(=O)c1cc(-c2ccnc(N3CCN(C)CC3)c2)cc2c1cnn2C(C)C [GSK343] (1000 nM) | 96.4
COc1cc2c(cc1-c1c(C)noc1C)ncc1[nH]c(=O)n([C@H](C)c3ccccn3)c12 [I-BET151] (1000 nM) | 74
CN1CCc2c(c3ccccc3n2Cc2ccc(C(=O)NO)cc2)C1 [Tubastatin A] (1000 nM) | 112

Test system: MDA-MB-231
Assay: as above
Details: incubation time: 72 h
Outline: as §1

SMILES | normalised response [%]
CC(C)(C)Cn1c(N)nc2ccc(-c3[nH]c(C(C)(C)C)nc3-c3ccc(F)cc3)nc21 (1000 nM) | 100
Cn1cc(C[C@@H](N)C(=O)O)c2ccccc21 [1-methyl-D-tryptophan] (500 nM) | 96.6
CC[C@H](CC#N)OC(=O)N[C@@H](C)c1cccc(NC(=O)Nc2ccc(-c3cnco3)c(OC)c2)c1 [AVN944] (1000 nM) | 53.5
CCc1cnn2c(NCc3ccc[n+]([O-])c3)cc(N3CCCC[C@H]3CCO)nc12 [Dinaciclib] (100 nM) | 5.94
COc1cc(Nc2ncc(F)c(Nc3ccc4c(n3)N(COP(=O)(O)O)C(=O)C(C)(C)O4)n2)cc(OC)c1OC [Fostamatinib] (250 nM) | 85
CC(C)NC[C@@H](C(=O)N1CCN(c2ncnc3c2[C@H](C)C[C@H]3O)CC1)c1ccc(Cl)cc1 [GDC-0068] (1000 nM) | 92.4
CCCc1cc(C)[nH]c(=O)c1CNC(=O)c1cc(-c2ccnc(N3CCN(C)CC3)c2)cc2c1cnn2C(C)C [GSK343] (1000 nM) | 97.3
COc1cc2c(cc1-c1c(C)noc1C)ncc1[nH]c(=O)n([C@H](C)c3ccccn3)c12 [I-BET151] (1000 nM) | 85.7
CN1CCc2c(c3ccccc3n2Cc2ccc(C(=O)NO)cc2)C1 [Tubastatin A] (1000 nM) | 91.7

Test system: MDA-MB-436
Assay: as above
Details: incubation time: 72 h
Outline: as §1

SMILES | normalised response [%]
CC(C)(C)Cn1c(N)nc2ccc(-c3[nH]c(C(C)(C)C)nc3-c3ccc(F)cc3)nc21 (1000 nM) | 102
Cn1cc(C[C@@H](N)C(=O)O)c2ccccc21 [1-methyl-D-tryptophan] (500 nM) | 101
CC[C@H](CC#N)OC(=O)N[C@@H](C)c1cccc(NC(=O)Nc2ccc(-c3cnco3)c(OC)c2)c1 [AVN944] (1000 nM) | 42.7
CCc1cnn2c(NCc3ccc[n+]([O-])c3)cc(N3CCCC[C@H]3CCO)nc12 [Dinaciclib] (100 nM) | 15.8
COc1cc(Nc2ncc(F)c(Nc3ccc4c(n3)N(COP(=O)(O)O)C(=O)C(C)(C)O4)n2)cc(OC)c1OC [Fostamatinib] (250 nM) | 105
CC(C)NC[C@@H](C(=O)N1CCN(c2ncnc3c2[C@H](C)C[C@H]3O)CC1)c1ccc(Cl)cc1 [GDC-0068] (1000 nM) | 89.1
CCCc1cc(C)[nH]c(=O)c1CNC(=O)c1cc(-c2ccnc(N3CCN(C)CC3)c2)cc2c1cnn2C(C)C [GSK343] (1000 nM) | 99.1
COc1cc2c(cc1-c1c(C)noc1C)ncc1[nH]c(=O)n([C@H](C)c3ccccn3)c12 [I-BET151] (1000 nM) | 94.7
CN1CCc2c(c3ccccc3n2Cc2ccc(C(=O)NO)cc2)C1 [Tubastatin A] (1000 nM) | 97.5

Test system: MDA-MB-453
Assay: as above
Details: incubation time: 72 h
Outline: as §1

SMILES | normalised response [%]
CC(C)(C)Cn1c(N)nc2ccc(-c3[nH]c(C(C)(C)C)nc3-c3ccc(F)cc3)nc21 (1000 nM) | 92.8
Cn1cc(C[C@@H](N)C(=O)O)c2ccccc21 [1-methyl-D-tryptophan] (500 nM) | 105
CC[C@H](CC#N)OC(=O)N[C@@H](C)c1cccc(NC(=O)Nc2ccc(-c3cnco3)c(OC)c2)c1 [AVN944] (1000 nM) | 84.4
CCc1cnn2c(NCc3ccc[n+]([O-])c3)cc(N3CCCC[C@H]3CCO)nc12 [Dinaciclib] (100 nM) | 15.5
COc1cc(Nc2ncc(F)c(Nc3ccc4c(n3)N(COP(=O)(O)O)C(=O)C(C)(C)O4)n2)cc(OC)c1OC [Fostamatinib] (250 nM) | 93.7
CC(C)NC[C@@H](C(=O)N1CCN(c2ncnc3c2[C@H](C)C[C@H]3O)CC1)c1ccc(Cl)cc1 [GDC-0068] (1000 nM) | 53.6
CCCc1cc(C)[nH]c(=O)c1CNC(=O)c1cc(-c2ccnc(N3CCN(C)CC3)c2)cc2c1cnn2C(C)C [GSK343] (1000 nM) | 80.4
COc1cc2c(cc1-c1c(C)noc1C)ncc1[nH]c(=O)n([C@H](C)c3ccccn3)c12 [I-BET151] (1000 nM) | 68.4
CN1CCc2c(c3ccccc3n2Cc2ccc(C(=O)NO)cc2)C1 [Tubastatin A] (1000 nM) | 92.4

Test system: MDA-MB-468
Assay: as above
Details: incubation time: 72 h
Outline: as §1

SMILES | normalised response [%]
CC(C)(C)Cn1c(N)nc2ccc(-c3[nH]c(C(C)(C)C)nc3-c3ccc(F)cc3)nc21 (1000 nM) | 93.4
Cn1cc(C[C@@H](N)C(=O)O)c2ccccc21 [1-methyl-D-tryptophan] (500 nM) | 101
CC[C@H](CC#N)OC(=O)N[C@@H](C)c1cccc(NC(=O)Nc2ccc(-c3cnco3)c(OC)c2)c1 [AVN944] (1000 nM) | 37.5
CCc1cnn2c(NCc3ccc[n+]([O-])c3)cc(N3CCCC[C@H]3CCO)nc12 [Dinaciclib] (100 nM) | 9.07
COc1cc(Nc2ncc(F)c(Nc3ccc4c(n3)N(COP(=O)(O)O)C(=O)C(C)(C)O4)n2)cc(OC)c1OC [Fostamatinib] (250 nM) | 90.5
CC(C)NC[C@@H](C(=O)N1CCN(c2ncnc3c2[C@H](C)C[C@H]3O)CC1)c1ccc(Cl)cc1 [GDC-0068] (1000 nM) | 60.9
CCCc1cc(C)[nH]c(=O)c1CNC(=O)c1cc(-c2ccnc(N3CCN(C)CC3)c2)cc2c1cnn2C(C)C [GSK343] (1000 nM) | 87
COc1cc2c(cc1-c1c(C)noc1C)ncc1[nH]c(=O)n([C@H](C)c3ccccn3)c12 [I-BET151] (1000 nM) | 86.3
CN1CCc2c(c3ccccc3n2Cc2ccc(C(=O)NO)cc2)C1 [Tubastatin A] (1000 nM) | 90.8

Test system: MFM-223
Assay: as above
Details: incubation time: 72 h
Outline: as §1

SMILES | normalised response [%]
CC(C)(C)Cn1c(N)nc2ccc(-c3[nH]c(C(C)(C)C)nc3-c3ccc(F)cc3)nc21 (1000 nM) | 97.9
Cn1cc(C[C@@H](N)C(=O)O)c2ccccc21 [1-methyl-D-tryptophan] (500 nM) | 92.7
CC[C@H](CC#N)OC(=O)N[C@@H](C)c1cccc(NC(=O)Nc2ccc(-c3cnco3)c(OC)c2)c1 [AVN944] (1000 nM) | 71.3
CCc1cnn2c(NCc3ccc[n+]([O-])c3)cc(N3CCCC[C@H]3CCO)nc12 [Dinaciclib] (100 nM) | 14.8
COc1cc(Nc2ncc(F)c(Nc3ccc4c(n3)N(COP(=O)(O)O)C(=O)C(C)(C)O4)n2)cc(OC)c1OC [Fostamatinib] (250 nM) | 63.1
CC(C)NC[C@@H](C(=O)N1CCN(c2ncnc3c2[C@H](C)C[C@H]3O)CC1)c1ccc(Cl)cc1 [GDC-0068] (1000 nM) | 31.7
CCCc1cc(C)[nH]c(=O)c1CNC(=O)c1cc(-c2ccnc(N3CCN(C)CC3)c2)cc2c1cnn2C(C)C [GSK343] (1000 nM) | 90.7
COc1cc2c(cc1-c1c(C)noc1C)ncc1[nH]c(=O)n([C@H](C)c3ccccn3)c12 [I-BET151] (1000 nM) | 72
CN1CCc2c(c3ccccc3n2Cc2ccc(C(=O)NO)cc2)C1 [Tubastatin A] (1000 nM) | 96.9

Test system: SK-BR-3
Assay: as above
Details: incubation time: 72 h
Outline: as §1

SMILES | normalised response [%]
CC(C)(C)Cn1c(N)nc2ccc(-c3[nH]c(C(C)(C)C)nc3-c3ccc(F)cc3)nc21 (1000 nM) | 97.7
Cn1cc(C[C@@H](N)C(=O)O)c2ccccc21 [1-methyl-D-tryptophan] (500 nM) | 92.7
CC[C@H](CC#N)OC(=O)N[C@@H](C)c1cccc(NC(=O)Nc2ccc(-c3cnco3)c(OC)c2)c1 [AVN944] (1000 nM) | 51.3
CCc1cnn2c(NCc3ccc[n+]([O-])c3)cc(N3CCCC[C@H]3CCO)nc12 [Dinaciclib] (100 nM) | 4.18
COc1cc(Nc2ncc(F)c(Nc3ccc4c(n3)N(COP(=O)(O)O)C(=O)C(C)(C)O4)n2)cc(OC)c1OC [Fostamatinib] (250 nM) | 98.1
CC(C)NC[C@@H](C(=O)N1CCN(c2ncnc3c2[C@H](C)C[C@H]3O)CC1)c1ccc(Cl)cc1 [GDC-0068] (1000 nM) | 67.2
CCCc1cc(C)[nH]c(=O)c1CNC(=O)c1cc(-c2ccnc(N3CCN(C)CC3)c2)cc2c1cnn2C(C)C [GSK343] (1000 nM) | 83.6
COc1cc2c(cc1-c1c(C)noc1C)ncc1[nH]c(=O)n([C@H](C)c3ccccn3)c12 [I-BET151] (1000 nM) | 82
CN1CCc2c(c3ccccc3n2Cc2ccc(C(=O)NO)cc2)C1 [Tubastatin A] (1000 nM) | 100
